Data: patent publication US5744340A, “Expression of human inducible nitric oxide synthase” (Schering Corporation, priority 1995, dated 1998)
Where “and” joins values, the source holds several entries; their conditions need not be identical. Equal values may be shown once. Read-outs that look alike come from different tables or passages of the source. Values belong to the compound of their own block, whether it stands above or below them.

Experiments:
rat bNOS [1] = settings: Klatt et al., 1994, cited from earlier work
human iNOS [2] = molecular target: T1, human iNOS (Homo sapiens, UniProt P35228); experiment: iNOS activity: conversion of radioactive arginine to citrulline; type: biochemical; settings: for dependence of activity on iNOS cofactors: crude cell extract; for NOS activity without calmodulin coexpression: expression in E. coli
T1 construct: A full length iNOS cDNA was assembled from the products of the four PCR reactions; made in house; host or cells: E. coli JS5
T1 sequence (P35228 whole entry): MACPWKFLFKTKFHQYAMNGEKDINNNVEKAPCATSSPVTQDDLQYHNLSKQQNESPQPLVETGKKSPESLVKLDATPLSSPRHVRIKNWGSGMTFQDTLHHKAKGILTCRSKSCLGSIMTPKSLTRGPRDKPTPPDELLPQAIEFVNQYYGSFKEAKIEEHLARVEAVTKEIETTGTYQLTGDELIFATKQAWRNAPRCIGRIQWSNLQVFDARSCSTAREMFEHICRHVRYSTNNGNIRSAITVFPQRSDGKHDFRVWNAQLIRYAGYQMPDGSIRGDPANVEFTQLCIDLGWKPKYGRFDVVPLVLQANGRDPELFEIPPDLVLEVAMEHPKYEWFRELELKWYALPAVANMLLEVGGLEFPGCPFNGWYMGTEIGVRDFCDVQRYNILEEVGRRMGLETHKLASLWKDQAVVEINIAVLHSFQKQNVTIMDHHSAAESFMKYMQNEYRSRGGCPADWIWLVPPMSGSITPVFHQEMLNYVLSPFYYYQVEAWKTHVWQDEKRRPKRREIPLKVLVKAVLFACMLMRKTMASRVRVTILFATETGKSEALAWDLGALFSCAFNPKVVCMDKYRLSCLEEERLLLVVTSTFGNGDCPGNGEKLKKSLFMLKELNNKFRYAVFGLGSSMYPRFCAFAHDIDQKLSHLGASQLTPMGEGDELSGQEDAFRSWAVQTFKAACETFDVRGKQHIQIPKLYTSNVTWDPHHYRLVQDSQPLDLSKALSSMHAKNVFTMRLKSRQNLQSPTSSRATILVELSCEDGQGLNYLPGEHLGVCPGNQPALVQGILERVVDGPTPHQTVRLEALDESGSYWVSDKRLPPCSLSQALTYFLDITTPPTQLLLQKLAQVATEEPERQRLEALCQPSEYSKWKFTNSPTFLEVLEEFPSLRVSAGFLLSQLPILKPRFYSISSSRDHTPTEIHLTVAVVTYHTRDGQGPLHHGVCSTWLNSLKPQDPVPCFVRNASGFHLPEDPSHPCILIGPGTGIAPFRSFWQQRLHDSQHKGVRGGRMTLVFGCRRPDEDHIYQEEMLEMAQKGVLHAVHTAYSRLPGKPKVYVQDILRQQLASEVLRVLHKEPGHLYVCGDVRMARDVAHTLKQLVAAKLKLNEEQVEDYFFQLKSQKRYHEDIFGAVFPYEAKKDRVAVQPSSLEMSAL

murine iNOS = settings: 1991, cited from earlier work
human iNOS [3] = molecular target: T1, human iNOS; experiment: retention of iNOS activity on overnight storage; type: physicochemical
Experimental: Breakage of cells and the ammonium sulfate fractionations were done in the presence of 10 μM FAD, 10 μM FMN, 2 μM THB, and 2 μM hemin. Leaving these cofactors out of the breaking buffer had no effect on the level of iNOS activity. […] Flavins were omitted after the 40% ammonium sulfate fractionation since they bind tightly to Q Sepharose. CHAPS detergent was included for the Q Sepharose column because iNOS fractionated poorly from the bulk of the protein in its absence. The yield of iNOS from about 20 liters of cells (32 g starting protein in the crude extract) was about 30-40 mg.

rat bNOS [4] = settings: cited from earlier work

dependence of enzyme activity on added THB (human iNOS [2]; E. coli expressed iNOS): completely dependent | EC50 (human iNOS [2]; FIG. 4, cells broken without THB, varying THB in assay, read-out: half-maximal activity (THB titration)): ~120 nM and 120 nM | effect of THB on NOS activity (human iNOS [2]; cells broken in the absence of THB, THB added): restores NOS activity
Compound: C[C@H](O)[C@H](O)[C@H]1CNc2nc(N)[nH]c(=O)c2N1 [THB, tetrahydrobiopterin, reference compound]
Kd (rat bNOS [1]; read-out: Kd for THB binding to rat bNOS): ~40 nM | Kd (rat bNOS [1]; in the absence of 100 μM arginine, read-out: binding constant of THB for bNOS): 250 nM | Kd (rat bNOS [1]; in the presence of 100 μM arginine, read-out: binding constant of THB for bNOS): 37 nM

dependence of activity on iNOS cofactors (human iNOS [2]): no dependence
Compound: Cc1cc2nc3c(=O)[nH]c(=O)nc-3n(C[C@H](O)[C@H](O)[C@H](O)COP(=O)(O)OP(=O)(O)OC[C@H]3O[C@@H](n4cnc5c(N)ncnc54)[C@H](O)[C@@H]3O)c2cc1C [FAD, reference compound]

Compound: murine iNOS: purified murine inducible nitric oxide synthase (Stuehr et al., 1991)
specific activity of purified murine iNOS (murine iNOS; Stuehr et al.): 1000 nmol/min/mg | specific activity of murine iNOS (murine iNOS; pure murine iNOS, b61: Stuehr et al.): 1×10^6 units/mg and 1,000,000 units/mg

Compound: human iNOS: human inducible nitric oxide synthase expressed in E. coli, coexpressed with human calmodulin
activity after overnight storage (human iNOS [3]; absence of cofactors (FAD, FMN, THB, hemin)): half of the activity was lost | activity after overnight storage (human iNOS [3]; presence of cofactors (10 μM FAD, 10 μM FMN, 2 μM THB, 2 μM hemin)): complete activity was retained | Specific Activity (human iNOS [2]; 40% ammonium sulfate ppt): 19,600 units/mg | specific activity compared with murine iNOS (human iNOS [2]; E. coli expressed iNOS): approximately the same specific activity | level of activity with coexpression relative to without coexpression (human iNOS [2]; FIG. 2, average of three assays): > 100 fold | Specific Activity (human iNOS [2]; Q Sepharose pool): 149,000 units/mg | Specific Activity (human iNOS [2]; S300 pool): 317,000 units/mg | Specific Activity (human iNOS [2]; cell lysate): 2,420 units/mg | activity with coexpression of calmodulin (human iNOS [2]; crude extract): 3000-5000 units/mg | NOS activity without calmodulin coexpression (human iNOS [2]): barely detectable above background | NOS activity without calmodulin coexpression (human iNOS [2]; listed as iNOS): barely detectable above the E. coli negative control | specific activity of iNOS in the crude cell supernatant (human iNOS [2]; iNOS amount estimated from SDS gel against BSA control): 500-1000 nmoles citrulline/min/mg of iNOS | specific activity of the most pure material (human iNOS [2]; leading edge of the S300 column, >95% pure): 450,000 units/mg

Compound: N=C(N)NCCC[C@H](N)C(=O)O [arginine, L-arginine, reference compound]
Km for arginine compared with mammalian derived iNOS (human iNOS [2]; E. coli expressed iNOS): same Km

Compound: [Ca+2].[Cl-].[Cl-] [CaCl2, reference compound]
effect of addition on iNOS activity (human iNOS [2]; 1 mM CaCl2): unaffected

effect of addition on iNOS activity (human iNOS [2]; 1 mM EGTA): unaffected
Compound: O=C(O)CN(CCOCCOCCN(CC(=O)O)CC(=O)O)CC(=O)O [EGTA, reference compound]

Compound: hemin [reference compound]
dependence of activity on iNOS cofactors (human iNOS [2]): no dependence

dependence of activity on iNOS cofactors (human iNOS [2]): no dependence
Compound: Cc1cc2nc3c(=O)[nH]c(=O)nc-3n(C[C@H](O)[C@H](O)[C@H](O)COP(=O)(O)O)c2cc1C [FMN, reference compound]

effect of addition of calmodulin on NOS activity (human iNOS [2]; FIG. 2, coexpression extracts, calmodulin 10 μg/ml, 1 μM undiluted labeled arginine): no effect | effect of addition on iNOS activity (human iNOS [2]; calcium +10 mg/ml calmodulin): unaffected | effect of calmodulin in the NOS assay (human iNOS [2]; iNOS expressed in E. coli without coexpression of calmodulin): no effect
Compound: calmodulin

Compound: c1c[nH]cn1 [imidazole, reference compound]
IC50 (human iNOS [2]): 120000 nM

Compound: N=C(N)NN [aminoguanidine, reference compound]
IC50's on E. coli-derived compared with 293 cell-derived iNOS (human iNOS [2]; FIG. 5, 1 μM labeled arginine, inhibitor 0.01 to 10,000 μM): within two-fold of each other on both sources of iNOS

Compound: rat bNOS: rat brain or neuronal nitric oxide synthase
specific activity of rat bNOS (rat bNOS [4]): 270,000 units/mg
